# Experimental data taken from PMC9607545, “Cry4Aa and Cry4Ba Mosquito-Active Toxins Utilize Different Domains in Binding to a Particular Culex ALP Isoform: A Functional Toxin Receptor Implicating Differential Actions on Target Larvae” (Toxins, 2022).
# Tests used:
# Cq-mALP1264 = target: T1, Cq-mALP1264 (Culex quinquefasciatus, UniProt A0A9E8AEX0); assay: hydrolysis in Sf9 cell lysate, absorbance of p-nitrophenol at […] nm; type: biochemical; settings: 5 mM pNPP, 100 mM Tris-HCl pH 9.5, 5 mM MgCl2, 100 mM NaCl, 30 °C, 10 min; control: CAT-expressing lysate (endogenous ALP activity present)
# T1 construct: full-length ORF, 552 residues, ~61 kDa, 1656 bp cDNA from 4th instar larval midgut; N-terminal signal peptide and predicted GPI anchor; baculovirus (AcMNPV) expression in Sf9 cells
# T1 sequence (A0A9E8AEX0 21-552): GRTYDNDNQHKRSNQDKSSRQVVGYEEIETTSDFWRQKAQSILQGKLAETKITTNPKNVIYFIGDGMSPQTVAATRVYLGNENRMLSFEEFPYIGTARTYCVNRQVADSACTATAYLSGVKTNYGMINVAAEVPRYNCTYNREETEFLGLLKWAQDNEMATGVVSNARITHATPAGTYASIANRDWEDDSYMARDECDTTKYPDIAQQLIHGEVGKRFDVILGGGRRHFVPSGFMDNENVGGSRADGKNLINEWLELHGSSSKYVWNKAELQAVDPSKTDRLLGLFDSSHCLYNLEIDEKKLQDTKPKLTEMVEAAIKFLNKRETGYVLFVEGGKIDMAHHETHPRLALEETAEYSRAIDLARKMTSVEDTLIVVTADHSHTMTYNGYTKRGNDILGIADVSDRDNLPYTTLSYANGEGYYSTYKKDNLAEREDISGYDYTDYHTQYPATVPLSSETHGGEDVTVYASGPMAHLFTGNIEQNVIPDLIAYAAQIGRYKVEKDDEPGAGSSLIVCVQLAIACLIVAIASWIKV
# Cq-mALP1263 = target: T2, Cq-mALP1263 (Culex quinquefasciatus, UniProt A0A9E8ACD0); assay: as above; type: biochemical; settings: 5 mM pNPP, 100 mM Tris-HCl pH 9.5, 5 mM MgCl2, 100 mM NaCl, 30 °C, 10 min; control: CAT-expressing lysate (endogenous ALP activity present)
# T2 construct: full-length ORF, 523 residues, ~57 kDa, 1569 bp cDNA from 4th instar larval midgut; N-terminal signal peptide and predicted GPI anchor; baculovirus (AcMNPV) expression in Sf9 cells
# T2 sequence (A0A9E8ACD0 19-523): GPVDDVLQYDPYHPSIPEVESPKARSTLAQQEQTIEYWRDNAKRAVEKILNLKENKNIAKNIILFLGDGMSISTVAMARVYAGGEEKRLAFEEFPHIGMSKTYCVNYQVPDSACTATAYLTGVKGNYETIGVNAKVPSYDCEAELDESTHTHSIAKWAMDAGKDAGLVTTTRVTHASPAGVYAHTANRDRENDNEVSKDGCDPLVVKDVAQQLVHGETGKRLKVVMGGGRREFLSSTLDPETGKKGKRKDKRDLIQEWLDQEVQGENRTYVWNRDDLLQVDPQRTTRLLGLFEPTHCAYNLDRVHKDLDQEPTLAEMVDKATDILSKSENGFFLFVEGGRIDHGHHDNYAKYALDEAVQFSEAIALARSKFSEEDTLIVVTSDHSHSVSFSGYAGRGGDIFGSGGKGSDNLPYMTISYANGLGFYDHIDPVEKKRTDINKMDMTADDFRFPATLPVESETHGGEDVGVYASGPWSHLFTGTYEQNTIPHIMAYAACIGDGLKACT
compound,measurement,setting,value
O=[N+]([O-])c1ccc(OP(=O)(O)O)cc1 [pNPP],"hydrolysis in Sf9 cell lysate, absorbance of p-nitrophenol at 405 nm",Cq-mALP1264,both Cq-mALP-expressed cells produced significantly higher ALP activity than CAT-expressed cells
same,"hydrolysis in Sf9 cell lysate, absorbance of p-nitrophenol at 405 nm",Cq-mALP1263,both Cq-mALP-expressed cells produced significantly higher ALP activity than CAT-expressed cells
